Bounds are passed on as bounds.

The target in the assay is T1, Human complement C1s enzyme (Homo sapiens, UniProt P09871).
T1 sequence (P09871 438-688 limits assumed): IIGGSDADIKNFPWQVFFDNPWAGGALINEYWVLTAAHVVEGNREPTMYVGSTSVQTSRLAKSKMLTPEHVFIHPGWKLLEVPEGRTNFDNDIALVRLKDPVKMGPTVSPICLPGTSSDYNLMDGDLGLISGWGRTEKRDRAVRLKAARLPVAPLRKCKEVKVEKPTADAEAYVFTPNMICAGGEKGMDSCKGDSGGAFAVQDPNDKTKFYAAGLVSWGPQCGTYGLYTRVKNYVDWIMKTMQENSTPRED
T1 sequence (P09871 16-437 partner limits assumed): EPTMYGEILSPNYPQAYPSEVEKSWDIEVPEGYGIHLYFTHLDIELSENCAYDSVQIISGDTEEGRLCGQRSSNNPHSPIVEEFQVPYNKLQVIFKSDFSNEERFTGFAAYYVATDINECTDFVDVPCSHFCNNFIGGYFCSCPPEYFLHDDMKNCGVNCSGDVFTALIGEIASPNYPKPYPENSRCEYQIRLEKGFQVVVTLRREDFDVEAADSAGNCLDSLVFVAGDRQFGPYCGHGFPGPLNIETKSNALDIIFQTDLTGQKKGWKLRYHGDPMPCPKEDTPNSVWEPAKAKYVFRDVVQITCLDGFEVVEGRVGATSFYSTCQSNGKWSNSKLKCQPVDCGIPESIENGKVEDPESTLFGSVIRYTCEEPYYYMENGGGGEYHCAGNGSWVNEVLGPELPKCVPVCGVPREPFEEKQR
Kind of assay: Human C1s enzyme assay. In kind it is biochemical. The following applies: human complement C1s enzyme 1.16 nM, substrate Z-L-Lys-SBzl 100 μM, 5 min preincubation; read-out: IC50 (Stars), C1s Inhibiting Activity. The essentials: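 Serum-purified human C1s (1.16 nM final) preincubated 5 min at room temperature with compound in 50 mM Tris, 1 M NaCl, pH 7.5. Z-L-Lys-SBzl and DTNB added at 100 μM each; A405 followed every 30 s for 30 min, and IC50 obtained by nonlinear regression of reaction rates.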
Regarding `O=C(NCC(=O)N1CC2(C[C@H]1C(=O)NCc1cc3cnc(Cl)cc3[nH]1)OCCO2)c1ccc2c(c1)Oc1ccccc1S2` [Compound 43, (S)-N-((6-chloro-1H-pyrrolo[3,2-c]pyridin-2-yl)methyl)-7-((phenoxathiine-3-carbonyl)glycyl)-1,4-dioxa-7-azaspiro[4.4]nonane-8-carboxamide], the 50% inhibitory concentration (IC50) (in general, the concentration at which inhibition is half-maximal) was above 1000 nM.

With `COC[C@@]1(F)C[C@@H](C(=O)N[C@H](C)c2cc3cnccc3[nH]2)N(C(=O)CNC(=O)c2ccc3c(c2)-c2ccccc2C3(F)F)C1` [Compound 73, (2S,4R)-N-((R)-1-(1H-pyrrolo[3,2-c]pyridin-2-yl)ethyl)-1-((9,9-difluoro-9H-fluorene-3-carbonyl)glycyl)-4-fluoro-4-(methoxymethyl)pyrrolidine-2-carboxamide], the IC50 was below 100 nM.

Consider `C[C@@]12C[C@@H]1N(C(=O)CNC(=O)CCCOc1ccccc1)[C@H](C(=O)NCCCn1ccnc1)C2` [Compound 59, (1S,3S,5S)-N-(3-(1H-imidazol-1-yl)propyl)-5-methyl-2-((4-phenoxybutanoyl)glycyl)-2-azabicyclo[3.1.0]hexane-3-carboxamide], for which the IC50 is above 1000 nM.

Take `CS(=O)(=O)[C@@H]1C[C@@H](C(=O)N[C@H](CO)c2cc3cnccc3[nH]2)N(C(=O)CNC(=O)c2ccc(Oc3ccc(F)cc3)cc2)C1` [Compound 96, (2S,4R)-1-((4-(4-fluorophenoxy)benzoyl)glycyl)-N-((S)-2-hydroxy-1-(1H-pyrrolo[3,2-c]pyridin-2-yl)ethyl)-4-(methylsulfonyl) pyrrolidine-2-carboxamide]: the IC50 was above 1000 nM.

For the molecule `C[C@@H](NC(=O)[C@@H]1C[C@]2(C)C[C@@H]2N1C(=O)CN1Cc2cc(-c3ccc(F)cc3)ccc2C1=O)c1cc2cnccc2[nH]1` [Compound 116, (1S,3S,5S)-N-((R)-1-(1H-pyrrolo[3,2-c]pyridin-2-yl)ethyl)-2-(2-(5-(4-fluorophenyl)-1-oxoisoindolin-2-yl)acetyl)-5-methyl-2-azabicyclo[3.1.0]hexane-3-carboxamide], the IC50 is above 1000 nM.

On to `O=C(NCC(=O)N1C[C@H](OC(F)F)C[C@H]1C(=O)NCc1cc2cnccc2[nH]1)c1cccc(Oc2ccccc2F)c1` [Compound 299, (2S,4R)-N-((1H-pyrrolo[3,2-c]pyridin-2-yl)methyl)-4-(difluoromethoxy)-1-((3-(2-fluorophenoxy)benzoyl)glycyl) pyrrolidine-2-carboxamide], for which the IC50 was below 100 nM.

Consider `O=C(NCC(=O)N1C[C@H](OC(F)F)C[C@H]1C(=O)NCc1cc2cnccc2[nH]1)c1ccccc1Oc1ccccc1` [Compound 239, (2S,4R)-N-((1H-pyrrolo[3,2-c]pyridin-2-yl)methyl)-4-(difluoromethoxy)-1-((2-phenoxybenzoyl)glycyl)pyrrolidine-2-carboxamide], for which the concentration for half-maximal inhibition (IC50) was above 1000 nM.

Consider `O=C(NCC(=O)N1CC2(C[C@H]1C(=O)NCc1cc3cnccc3s1)OCCO2)c1cccc(Oc2ccccc2)c1` [Compound 256, (S)-7-((3-phenoxybenzoyl)glycyl)-N-(thieno[3,2-c]pyridin-2-ylmethyl)-1,4-dioxa-7-azaspiro[4.4]nonane-8-carboxamide], for which the IC50 is below 100 nM.

Regarding `Cc1ccc(Oc2ccc(F)c(C(=O)NCC(=O)N3C[C@H](OC(F)F)C[C@H]3C(=O)NCc3cc4cnccc4[nH]3)c2)c(F)c1` [Compound 322, (2S,4R)-N-((1H-pyrrolo[3,2-c]pyridin-2-yl)methyl)-4-(difluoromethoxy)-1-((2-fluoro-5-(2-fluoro-4-methylphenoxy)benzoyl)glycyl) pyrrolidine-2-carboxamide], the IC50 is below 100 nM.

Take `O=C(NCC(=O)N1C[C@H](OC(F)F)C[C@H]1C(=O)NCc1ccc2c(n1)NCC2)c1ccc2c(c1)Oc1ccccc1S2` [Compound 265, (2S,4R)-4-(difluoromethoxy)-N-((2,3-dihydro-1H-pyrrolo[2,3-b]pyridin-6-yl)methyl)-1-((phenoxathiine-3-carbonyl)glycyl)pyrrolidine-2-carboxamide]: the IC50 was above 1000 nM.

The values are drawn from patent US20260062443A1 (ALEXION PHARMACEUTICALS, INC., priority 2022, published 2026).
